# Test results taken from publication PMC6003237 (Bioorganic & medicinal chemistry, 2017).
# Values joined by “and” are separate entries in the source; they are usually repeats but may differ in a detail not shown here. Equal entries are not always repeated. Where two headings read alike, the source gives them in different places. *1 amine or outer side, *2 acyl side, *3 side chain or, on linkers, in order; H or OH if unused. Where a SMILES comes first, the peptide text is derived from it. [ ]: non-standard residue; d: D form. The star is where a group is joined. Emetine(N2') = CC[C@H]1CN2CCc3cc(OC)c(OC)cc3[C@@H]2C[C@@H]1C[C@@H]1c2cc(OC)c(OC)cc2CCN1*; PABC = O=C(OCc1ccc(N[*:1])cc1)[*:2]
# Legend:
# [1] = system: PC-3 xenografts; settings: dose of 8 mg/kg, earlier studies, ref not given; cited from earlier work
# [2] = system: mice; settings: for MTD (nmol injected): mice of average body weight 25 g; for dose producing acute toxicity (convulsions and death) / dose producing acute toxicity (convulsions and death), nmol: single IV injection
# [3] = system: NCI 60 cancer cell screen; settings: ref not given; cited from earlier work
# [4] = system: different cancer cell lines; settings: cited from earlier work
# [5] = system: DPPIV; settings: activation by DPPIV; ref [9]; cited from earlier work
# [6] = PBS
# [7] = system: LNCaP; test: MTT cytotoxicity in PSA producing LNCaP cells; type: cell-based, human
# [8] = molecular target: Purified native human prostate specific antigen (PSA) (Homo sapiens, UniProt P07288); test: PSA-mediated hydrolysis of prodrug ex-vivo; type: biochemical
# Purified native human prostate specific antigen (PSA), sequence (P07288 25-261): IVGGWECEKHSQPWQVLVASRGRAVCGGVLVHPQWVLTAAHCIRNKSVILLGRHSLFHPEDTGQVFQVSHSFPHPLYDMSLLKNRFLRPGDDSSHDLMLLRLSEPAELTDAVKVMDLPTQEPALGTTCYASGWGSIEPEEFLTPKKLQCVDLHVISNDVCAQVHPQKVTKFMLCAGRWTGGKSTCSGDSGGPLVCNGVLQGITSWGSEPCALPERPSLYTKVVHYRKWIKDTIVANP
# [9] = system: PC3; test: MTT cytotoxicity in non-PSA-producing PC3 cells; type: cell-based, human
# [10] = Stability / hydrolysis in 10% FBS
# [11] = Hydrolysis in LNCaP conditioned media; settings: serum containing LNCaP conditioned media, 37 °C, 24–72 h
# [12] = human, 200 µM
# [13] = system: CWR22Rv1; test: MTT cytotoxicity in low PSA-producing CWR22Rv1 cells; type: cell-based, human
# [14] = Stability in human plasma; type: in vitro ADME; settings: 48 h
# [15] = system: mice; settings: earlier studies of the authors, ref not given; cited from earlier work
structure (smiles),measurement,setting,value
"CC[C@H]1CN2CCc3cc(OC)c(OC)cc3[C@@H]2C[C@@H]1C[C@H]1NCCc2cc(OC)c(OC)cc21 [Emetine, emetine, reference compound]",therapeutic efficacy,[1],no therapeutic efficacy
same,Effects/observations at higher doses,"[2]; IV injection, mice",Convulsion and death within 1 min of injection at 16 mg/kg
same,MTD (nmol injected),[2]; IV injection,416 nmol
same,dose producing acute toxicity (convulsions and death),[2]; mice,16 mg/kg
same,GI50,[3],27 nM
"CC[C@H]1CN2CCc3cc(OC)c(OC)cc3[C@@H]2C[C@@H]1C[C@@H]1c2cc(OC)c(OC)cc2CCN1C(=O)OCc1ccc(NC(=O)[C@@H]2CCCN2C(=O)[C@H](C)N)cc1 [compound 10, 4-((S)-1-(L-Alanyl)pyrrolidine-2-carboxamido)benzyl (R)-1-(((2R,3R,11bS)-3-ethyl-9,10-dimethoxy-1,3,4,6,7,11b-hexahydro-2H-pyrido[2,1-a]isoquinolin-2-yl)methyl)-6,7-dimethoxy-3,4-dihydroisoquinoline-2(1H)-carboxylate]",in vitro cytotoxicity compared to emetine,"[4]; cancer cell lines, ref [6]–[9]",equipotency with emetine
same,time for efficient quantitative release of emetine,[5],≤ 24 h
same,Effects/observations at higher doses,"[2]; IV injection, mice",Convulsion and death at higher doses
same,MTD (nmol injected),[2]; IV injection,1003 nmol and 1002 nmol
"CC[C@H]1CN2CCc3cc(OC)c(OC)cc3[C@@H]2C[C@@H]1C[C@@H]1c2cc(OC)c(OC)cc2CCN1C(=O)OCc1ccc(NC(=O)[C@H](CC(C)C)NC(=O)[C@@H](N)CO)cc1 [compound 14, 4-((S)-2-((S)-2-Amino-3-hydroxypropanamido)-4-methyl-pentanamido) benzyl (R)-1-(((2R,3R,11bS)-3-ethyl-9,10-dimethoxy-1,3,4,6,7,11b-hexahydro-2H-pyrido[2,1-a]isoquinolin-2-yl)methyl)-6,7-dimethoxy-3,4-dihydroisoquinoline-2(1H)-carboxylate]",hydrolysis to emetine or any product (LCMS),"[6]; 37 °C, 24–72 h",did not result in its hydrolysis to emetine or any product of hydrolysis
same,% Emetine after 72 h incubation,"[6]; 37 °C, 72 h",0.0%
same,"% Ser-Leu-PABC-Emetine, 14 after 72 h incubation","[6]; 37 °C, 72 h",100%
same,cytotoxicity compared to emetine,[7],comparable to emetine
same,IC50,"[7]; Homo sapiens, LNCaP, 72 h",< 100 nM
same,Effects/observations at higher doses,"[2]; IV injection, mice",Toxic effect was observed at higher doses
same,MTD (nmol injected),[2]; IV injection,1541 nmol
same,% Emetine after 72 h incubation,"[8]; Purified PSA, 37 °C, 72 h",0.0%
same,hydrolysis / conversion to emetine on incubation with purified PSA (LCMS),"[8]; purified PSA, 37 °C, 24–72 h",not observed
same,cytotoxicity compared to emetine,[9],comparable to emetine
same,IC50,"[9]; Homo sapiens, PC-3, 72 h",< 100 nM
same,hydrolysis to emetine or any product (LCMS),"[10]; 10% FBS containing media, 37 °C, 24–72 h",did not result in its hydrolysis to emetine or any product of hydrolysis
same,hydrolysis to emetine or any product (LCMS),[11],did not result in its hydrolysis to emetine or any product of hydrolysis
same,"% Ser-Leu-PABC-Emetine, 14 after 72 h incubation",[12],100%
"CC[C@@H]1C[C@@H](C[C@@H]2c3cc(OC)c(OC)cc3CCN2C(=O)OCc2ccc(NC(=O)[C@H](CC(C)C)NC(=O)[C@H](CO)NC(C)=O)cc2)[C@H]2c3cc(OC)c(OC)cc3CCN2C1 [compound 15, 4-((S)-2-((S)-2-Acetamido-3-hydroxypropanamido)-4-methyl-pentanamido) benzyl (R)-1-(((2R,3R,11bS)-3-ethyl-9,10-dimethoxy-1,3,4,6,7,11b-hexahydro-2H-pyrido[2,1-a]isoquinolin-2-yl)methyl)-6,7-dimethoxy-3,4-dihydroisoquinoline-2(1H)-carboxylate]",concentration at which significant cytotoxicity was demonstrated,[7]; LNCaP (Fig. 3A),"10,000 nM"
same,concentration at which significant cytotoxicity was demonstrated,[9]; PC3 (Fig. 3B),"10,000 nM"
CC[C@H]1CN2CCc3cc(OC)c(OC)cc3[C@@H]2C[C@@H]1C[C@@H]1c2cc(OC)c(OC)cc2CCN1C(=O)OCc1ccc(NC(=O)[C@H](CC(C)C)NC(=O)[C@H](CO)NC(=O)[C@H](CCC(N)=O)NC(=O)[C@H](CC(C)C)NC(=O)[C@H](CCCCN)NC(=O)[C@H](CO)NC(=O)[C@H](CO)NC(=O)[C@H](Cc2c[nH]cn2)NC(C)=O)cc1 [compound 16] (Ac-HSSKLQSL[PABC]-{Emetine(N2')}),IC50 fold higher than the IC50 of emetine,[7]; LNCaP,about 2 fold
same,% of 14 observed after incubation with PSA (LCMS),"[8]; purified PSA, 2 h",20%
same,% of 14 observed after incubation with PSA (LCMS),"[8]; purified PSA, 6 h",50%
same,% of 14 observed after incubation with PSA (LCMS),"[8]; purified PSA, 20 h",98%
same,IC50 fold higher than the IC50 of emetine,[13],about 2 fold
CC[C@H]1CN2CCc3cc(OC)c(OC)cc3[C@@H]2C[C@@H]1C[C@@H]1c2cc(OC)c(OC)cc2CCN1C(=O)OCc1ccc(NC(=O)[C@H](CC(C)C)NC(=O)[C@H](CO)NC(=O)[C@H](CCC(N)=O)NC(=O)[C@H](CC(C)C)NC(=O)[C@H](CCCCN)NC(=O)[C@H](CO)NC(=O)[C@H](CO)NC(=O)[C@H](Cc2cnc[nH]2)NC(C)=O)cc1 [compound 16] (Ac-HSSKLQSL[PABC]-{Emetine(N2')}),"stability (cleavage, hydrolysis/decomposition)",[6]; five-day incubation at 37 °C,no sign of cleavage or any form of hydrolysis/decomposition was detectable
same,stability in human plasma (detection of 14 or emetine),[14],Neither precursor 14 nor emetine was detected
same,observation at the MTD,[2]; 25 mg/kg (402 nmol) IV,acute distress followed by recovery within an hour of injection
same,Effects/observations at higher doses,"[2]; IV injection, mice",Convulsion started about 1 min post injection at higher doses
same,MTD (nmol injected),[2]; IV injection,402 nmol
same,dose producing acute toxicity (convulsions and death),[2]; mice,50 mg/kg
same,"dose producing acute toxicity (convulsions and death), nmol",[2]; mice,804 nmol
same,times less cytotoxic in non-PSA producing cells than in PSA producing cells,"[9]; PC3 vs CWR22Rv1 and LNCaP, from IC50",7–9 times
same,"stability (cleavage, hydrolysis/decomposition)","[10]; 10% FBS, five-day incubation at 37 °C",no sign of cleavage or any form of hydrolysis/decomposition was detectable
CC[C@H]1CN2CCc3cc(OC)c(OC)cc3[C@@H]2C[C@@H]1C[C@@H]1c2cc(OC)c(OC)cc2CCN1C(=S)[S-].[Na+] [compound 18],in vitro cytotoxicity compared to emetine,"[4]; cancer cell lines, ref [6]–[9]",much less toxic in vitro compared to emetine
same,Effects/observations at higher doses,"[2]; IV injection, mice",No remarkable behavior even at higher doses. Mice remained alive
same,MTD (nmol injected),[2]; IV injection,> 4320 nmol
CC[C@H]1CN2CCc3cc(OC)c(OC)cc3[C@@H]2C[C@@H]1C[C@@H]1c2cc(OC)c(OC)cc2CCN1C(=O)/C=C(/C)C(=O)O [compound 19],in vitro cytotoxicity compared to emetine,[4],much less toxic in vitro compared to emetine
same,Effects/observations at higher doses,"[2]; IV injection, mice",No remarkable behavior even at higher doses. Mice remained alive
same,MTD (nmol injected),[2]; IV injection,> 4218 nmol
CC[C@H]1CN2CCc3cc(OC)c(OC)cc3[C@@H]2C[C@@H]1C[C@@H]1c2cc(OC)c(OC)cc2CCN1C(=O)/C=C(/CC(=O)O)C(=O)O [compound 20],in vitro cytotoxicity compared to emetine,[4],much less toxic in vitro compared to emetine
same,Effects/observations at higher doses,"[2]; IV injection, mice",No remarkable behavior even at higher doses. Mice remained alive
same,MTD (nmol injected),[2]; IV injection,> 3926 nmol
CC[C@H]1CN2CCc3cc(OC)c(OC)cc3[C@@H]2C[C@@H]1C[C@@H]1c2cc(OC)c(OC)cc2CCN1C(=O)/C(C)=C(/C)C(=O)O [compound 21],Effects/observations at higher doses,"[2]; IV injection, mice",32 mg/kg (1318 nmol) is toxic like emetine
same,lethal dose,[15],32 mg/kg
CC[C@H]1CN2CCc3cc(OC)c(OC)cc3[C@@H]2C[C@@H]1C[C@@H]1c2cc(OC)c(OC)cc2CCN1C(=O)CCC(=O)O [compound 22],in vitro cytotoxicity compared to emetine,[4],much less toxic in vitro compared to emetine
same,Effects/observations at higher doses,"[2]; IV injection, mice",No remarkable behavior. Mice remained alive
same,MTD (nmol injected),[2]; IV injection,> 4305 nmol
CC[C@H]1CN2CCc3cc(OC)c(OC)cc3[C@@H]2C[C@@H]1C[C@@H]1c2cc(OC)c(OC)cc2CCN1C(=O)[C@@H]1CCCN1C(=O)[C@H](C)N [compound 23],in vitro cytotoxicity compared to 10,"[4]; in vitro cytotoxicity assays, ref [9]",significantly less active
same,Effects/observations at higher doses,"[2]; IV injection, mice",Convulsion and death within 1 min of injection at 16 mg/kg (617 nmol)
same,dose producing acute toxicity (convulsions and death),[2]; mice,16 mg/kg
same,"dose producing acute toxicity (convulsions and death), nmol",[2]; mice,617 nmol
CC[C@H]1CN2CCc3cc(OC)c(OC)cc3[C@@H]2C[C@@H]1C[C@@H]1c2cc(OC)c(OC)cc2CCN1C(=O)OCc1ccc(NC(=O)[C@@H]2CCCN2C(=O)[C@H](C)NC(=O)[C@@H]2CCCN2C(=O)[C@H](C)NC(C)=O)cc1 [compound 24] (Ac-APAP[PABC]-{Emetine(N2')}),Effects/observations at higher doses,"[2]; IV injection, mice",Intermittent convulsion started 1 min post injection of 33 mg/kg dose (818 nmol). Death occurred after about 8 min
same,dose producing acute toxicity (convulsions and death),[2]; mice,33 mg/kg
same,"dose producing acute toxicity (convulsions and death), nmol",[2]; mice,818 nmol
CC[C@H]1CN2CCc3cc(OC)c(OC)cc3[C@@H]2C[C@@H]1C[C@@H]1c2cc(OC)c(OC)cc2CCN1C(=O)OCc1ccc([N+](=O)[O-])cc1 [compound 25],fold less cytotoxic than emetine in vitro,"[4]; different cancer cell lines, ref [6]–[9]",about 200 fold
same,Effects/observations at higher doses,"[2]; IV injection, mice","No remarkable behavior, no sign of toxicity. Mice remained alive"
same,dose without any observable sign of toxicity,"[2]; IV injection, mice",64 mg/kg
same,"dose without any observable sign of toxicity, nmol","[2]; IV injection, mice",2425 nmol
same,MTD (nmol injected),[2]; IV injection,> 2425 nmol
CC[C@H]1CN2CCc3cc(OC)c(OC)cc3[C@@H]2C[C@@H]1C[C@@H]1c2cc(OC)c(OC)cc2CCN1C(=S)Nc1ccccc1 [compound 26],in vitro cytotoxicity compared to emetine,"[4]; cancer cell lines, ref [6]–[9]",less cytotoxic in vitro than emetine
same,dose without any observable sign of toxicity,"[2]; male, Balb/c, mouse, in vivo, iv",up to 100 mg/kg
